Source: patent US20240352075A1, “PACAP1-23 ANALOG GLYCOPEPTIDES AND METHODS FOR PRODUCING AND USING THE SAME” (priority 2021, published 2024)
Values joined by “and” are separate entries in the source; they are usually repeats but may differ in a detail not shown here. Equal entries are not always repeated. Where a SMILES comes first, the peptide text is derived from it. Primed or numbered codes have the meaning given here. Where no end group is shown, it is not given here. [ ]: non-standard residue; d: D form. The star is where a group is joined. ξ: configuration not given here. X2 = OCC1OC(OC2C(CO)OC(*)C(O)C2O)C(O)C(O)C1O; Glc = glucose on Ser (glucosylated Ser); Lac′ = lactose, glycoside on Ser; X1 = OCC1OC(*)C(O)C(O)C1O; Nva = CCC[C@H](N)C(=O)O; ξS = NC(CO)C(=O)O; Sar = CNCC(=O)O

T1: PAC1 (Homo sapiens, UniProt P41586)
T1 construct: 3xHA (N)
T1 sequence (P41586 21-468): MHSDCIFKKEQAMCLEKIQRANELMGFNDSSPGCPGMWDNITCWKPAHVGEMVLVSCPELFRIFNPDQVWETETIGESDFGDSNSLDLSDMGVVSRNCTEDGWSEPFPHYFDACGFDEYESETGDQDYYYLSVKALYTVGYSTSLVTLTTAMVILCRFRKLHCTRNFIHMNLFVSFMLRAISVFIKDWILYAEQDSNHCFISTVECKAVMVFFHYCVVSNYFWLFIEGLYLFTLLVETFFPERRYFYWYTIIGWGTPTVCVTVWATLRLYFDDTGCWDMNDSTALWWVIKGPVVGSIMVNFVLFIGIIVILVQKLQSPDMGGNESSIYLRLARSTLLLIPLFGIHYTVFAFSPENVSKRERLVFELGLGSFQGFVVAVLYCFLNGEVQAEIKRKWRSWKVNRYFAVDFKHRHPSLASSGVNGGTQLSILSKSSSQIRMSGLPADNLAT

T2: VPAC1 (Homo sapiens, UniProt P32241)
T2 construct: 3xHA (N)
T2 sequence (P32241 31-457): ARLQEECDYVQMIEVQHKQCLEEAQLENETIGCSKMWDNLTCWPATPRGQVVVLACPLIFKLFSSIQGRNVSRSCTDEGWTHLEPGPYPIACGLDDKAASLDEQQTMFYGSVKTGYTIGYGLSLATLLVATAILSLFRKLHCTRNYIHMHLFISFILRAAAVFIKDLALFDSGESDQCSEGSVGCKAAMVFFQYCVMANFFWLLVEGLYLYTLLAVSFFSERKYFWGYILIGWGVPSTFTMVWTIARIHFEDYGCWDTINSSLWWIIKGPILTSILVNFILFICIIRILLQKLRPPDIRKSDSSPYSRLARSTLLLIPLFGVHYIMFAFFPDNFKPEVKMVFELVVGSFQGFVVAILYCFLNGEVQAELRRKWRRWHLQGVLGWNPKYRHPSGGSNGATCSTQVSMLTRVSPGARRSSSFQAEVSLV

T3: VPAC2 (Homo sapiens, UniProt P41587)
T3 construct: 3xHA (N)
T3 sequence (P41587 24-438): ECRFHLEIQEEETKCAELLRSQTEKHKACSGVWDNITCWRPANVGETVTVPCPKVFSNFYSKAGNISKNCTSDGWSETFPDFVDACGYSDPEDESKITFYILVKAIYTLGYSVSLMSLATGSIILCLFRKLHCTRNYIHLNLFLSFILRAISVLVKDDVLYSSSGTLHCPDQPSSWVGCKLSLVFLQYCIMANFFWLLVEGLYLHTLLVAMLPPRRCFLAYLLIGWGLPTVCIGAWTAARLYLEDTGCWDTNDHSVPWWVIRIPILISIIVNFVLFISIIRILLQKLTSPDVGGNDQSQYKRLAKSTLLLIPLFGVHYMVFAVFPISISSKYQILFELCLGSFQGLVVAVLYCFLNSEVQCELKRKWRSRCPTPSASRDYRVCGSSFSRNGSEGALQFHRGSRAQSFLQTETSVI

T4: human VPAC1 (human, UniProt P32241 31-457)
T4 sequence (looked up): T2 sequence (P32241 31-457)

T5: human PAC1 (human, UniProt P41586 21-468)
T5 sequence (looked up): T1 sequence (P41586 21-468)

T6: human VPAC2 (human, UniProt P41587 24-438)
T6 sequence (looked up): T3 sequence (P41587 24-438)

B1: CRA-TG-3027 (peptide)
peptide: HSD[Sar]IFTDSYSRYRKQ[Nva]AVKKYLS(Lac′)-NH2
B2: CRA-DV-3024 (peptide)
peptide: HSDGIFTDSYSRYRKQ[Nva]AVKKYLS(Glc)S(Glc)-NH2
B3: CRA-DV-3022 (peptide)
peptide: HSDGIFTDSYSRYRKQ[Nva]AVKKYLS-NH2
modifications: not fully specified
B4: CRA-TG-3025 (peptide)
peptide: HSDGIFTDSYSRYRKQ[Nva]AVKKYLS(Lac′)-NH2

Tests used:
PAC1 = target: T1, PAC1; assay: cAMP accumulation assay in CHO cells stably expressing PAC1; assay type: cell-based; details: for Emax: CHO
Procedure: Cell Culture: CHO cells stably expressing cloned PAC1, VPAC1, and VPAC2 were produced by electroporation with human PAC1/VPAC1/VPAC2 N-3×HA tag cDNA constructs (GeneCopocia). Cells were grown on 10 cm dishes in DMEM/F-12 50/50 mix w/L-glutamine & 15 mM HEPES (Corning) containing 10% heat inactivated fetal bovine serum, 100 units/mL penicillin, 100 μg/mL streptomycin, and 500 μg/mL G418 under 5% CO2 at 37° C. The cells were enriched into high expressing populations using flow cytometry, selecting the top ˜2% of expressing cells.
CAMP Accumulation Assay: At ˜80% confluence, cells were plated into 96-well plates (20.000 cells/well) and grown in the same medium and conditions as described above for 24 hrs. The cells were then serum starved for 4 hr. After a 20 min incubation at 37° C. with 500 μM 3-Isobutyl-1-methylxanthine (IBMX), serum free medium containing 500 μM IBMX and the appropriate agonists were added and then incubated for 10 min at 37° C. The reaction was terminated by removing the medium and adding 60 μL of ice-cold assay buffer (50 mM Tris-HCl pH 7.4, 100 mM NaCl, 5 mM ethylenediaminetetraacetic acid [EDTA]). Plates were sealed with boiling mats and then boiled at 95° C. for 10 min. Plates were then centrifuged at 4000 rpm, 4° C., for 10 min to remove debris. 50 μL of lysate was transferred to a 96-well plate. Lysate was incubated with ˜1 μmol 3H-CAMP (PerkinElmer), and 7 μg protein kinase A (Sigma Aldrich) with 0.05% Bovine Serum Albumin (BSA). The assay was incubated at room temperature for 1 hr. The reactions were then harvested onto GF/B filter plates (PerkinElmer) via rapid filtration by a 96-well plate Cell Harvester (Brandel) and washed 3 times with ice-cold water. Filter plates were dried, 40 μL of Microscint-PS scintillation cocktail was added to each well, and then counted in a TopCount or Microbeta2 (PerkinElmer) microplate scintillation counter.

VPAC1 = target: T2, VPAC1; assay: cAMP accumulation assay in CHO cells stably expressing VPAC1; assay type: cell-based; details: for Emax: CHO
VPAC2 = target: T3, VPAC2; assay: cAMP accumulation assay in CHO cells stably expressing VPAC2; assay type: cell-based; details: for Emax: CHO
human VPAC1 [1] = target: T4, human VPAC1; assay: cell-based or functional assay
human PAC1 = target: T5, human PAC1; assay: cell-based or functional assay
human VPAC1 [2] = target: T4, human VPAC1; assay: cell-based or functional assay; remark: listed apart in the source
human VPAC2 [3] = target: T6, human VPAC2; assay: cell-based or functional assay
human VPAC2 [4] = target: T6, human VPAC2; assay: cell-based or functional assay; remark: listed apart in the source
[5] = Table 3, in vitro cAMP stimulation, NC = No Convergence (no activity)

Molecule	Emax (PAC1)	Emax (VPAC1)	Emax (VPAC2)	Emax (VPAC2; [5])	cAMP stimulation Emax (Table 1, differs from Table 3) (human VPAC1 [1])	cAMP stimulation EC50 (human PAC1)	cAMP stimulation Emax (human PAC1)	cAMP stimulation EC50 (human VPAC1 [2])	cAMP stimulation Emax (human VPAC1 [2])	further results
CCC[C@H](NC(=O)[C@H](CCC(N)=O)NC(=O)[C@H](CCCCN)NC(=O)[C@H](CCCNC(=N)N)NC(=O)[C@H](Cc1ccc(O)cc1)NC(=O)[C@H](CCCNC(=N)N)NC(=O)[C@H](CO)NC(=O)[C@H](Cc1ccc(O)cc1)NC(=O)[C@H](CO)NC(=O)[C@H](CC(=O)O)NC(=O)[C@@H](NC(=O)[C@H](Cc1ccccc1)NC(=O)[C@@H](NC(=O)CNC(=O)[C@H](CC(=O)O)NC(=O)[C@H](CO)NC(=O)[C@@H](N)Cc1c[nH]cn1)[C@@H](C)CC)[C@@H](C)O)C(=O)N[C@@H](C)C(=O)N[C@H](C(=O)N[C@@H](CCCCN)C(=O)N[C@@H](CCCCN)C(=O)N[C@@H](Cc1ccc(O)cc1)C(=O)N[C@@H](CC(C)C)C(=O)N[C@@H](CO)C(N)=O)C(C)C [CRA-DV-3022] (H-HSDGIFTDSYSRYRKQ[Nva]AVKKYLS-NH2)	198%	42% and 94%	111%	91%						EC50 (PAC1; Table 3, in vitro cAMP stimulation): 2.2 nM; EC50 (VPAC1; Table 1, cAMP stimulation, CHO cells): 5.2 nM; EC50 (VPAC2; Table 1, cAMP stimulation, CHO cells, NC not defined here (Table 3: No Convergence)): 571 nM; EC50 (VPAC2; [5]): 571 nM
CCC[C@H](NC(=O)[C@H](CCC(N)=O)NC(=O)[C@H](CCCCN)NC(=O)[C@H](CCCNC(=N)N)NC(=O)[C@H](Cc1ccc(O)cc1)NC(=O)[C@H](CCCNC(=N)N)NC(=O)[C@H](CO)NC(=O)[C@H](Cc1ccc(O)cc1)NC(=O)[C@H](CO)NC(=O)[C@H](CC(=O)O)NC(=O)[C@@H](NC(=O)[C@H](Cc1ccccc1)NC(=O)[C@@H](NC(=O)CNC(=O)[C@H](CC(=O)O)NC(=O)[C@H](CO)NC(=O)[C@@H](N)Cc1c[nH]cn1)[C@@H](C)CC)[C@@H](C)O)C(=O)N[C@@H](C)C(=O)N[C@H](C(=O)N[C@@H](CCCCN)C(=O)N[C@@H](CCCCN)C(=O)N[C@@H](Cc1ccc(O)cc1)C(=O)N[C@@H](CC(C)C)C(=O)NC(COC1OC(CO)C(O)C(O)C1O)C(N)=O)C(C)C (stereo partly drawn) [CRA-DV-3023] (H-HSDGIFTDSYSRYRKQ[Nva]AVKKYL[ξS](X1)-NH2)	181%	105%		90%						
CCC[C@H](NC(=O)[C@H](CCC(N)=O)NC(=O)[C@H](CCCCN)NC(=O)[C@H](CCCNC(=N)N)NC(=O)[C@H](Cc1ccc(O)cc1)NC(=O)[C@H](CCCNC(=N)N)NC(=O)[C@H](CO)NC(=O)[C@H](Cc1ccc(O)cc1)NC(=O)[C@H](CO)NC(=O)[C@H](CC(=O)O)NC(=O)[C@@H](NC(=O)[C@H](Cc1ccccc1)NC(=O)[C@@H](NC(=O)CN(C)C(=O)[C@H](CC(=O)O)NC(=O)[C@H](CO)NC(=O)[C@@H](N)Cc1c[nH]cn1)[C@@H](C)CC)[C@@H](C)O)C(=O)N[C@@H](C)C(=O)N[C@H](C(=O)N[C@@H](CCCCN)C(=O)N[C@@H](CCCCN)C(=O)N[C@@H](Cc1ccc(O)cc1)C(=O)N[C@@H](CC(C)C)C(=O)NC(COC1OC(CO)C(OC2OC(CO)C(O)C(O)C2O)C(O)C1O)C(N)=O)C(C)C (stereo partly drawn) [CRA-TG-3027] (H-HSD[Sar]IFTDSYSRYRKQ[Nva]AVKKYL[ξS](X2)-NH2)	134%	90%								
CCC[C@H](NC(=O)[C@H](CCC(N)=O)NC(=O)[C@H](CCCCN)NC(=O)[C@H](CCCNC(=N)N)NC(=O)[C@H](Cc1ccc(O)cc1)NC(=O)[C@H](CCCNC(=N)N)NC(=O)[C@H](CO)NC(=O)[C@H](Cc1ccc(O)cc1)NC(=O)[C@H](CO)NC(=O)[C@H](CC(=O)O)NC(=O)[C@@H](NC(=O)[C@H](Cc1ccccc1)NC(=O)[C@@H](NC(=O)CNC(=O)[C@H](CC(=O)O)NC(=O)[C@H](CO)NC(=O)[C@@H](N)Cc1c[nH]cn1)[C@@H](C)CC)[C@@H](C)O)C(=O)N[C@@H](C)C(=O)N[C@H](C(=O)N[C@@H](CCCCN)C(=O)N[C@@H](CCCCN)C(=O)N[C@@H](Cc1ccc(O)cc1)C(=O)N[C@@H](CC(C)C)C(=O)NC(COC1OC(CO)C(O)C(O)C1O)C(=O)NC(COC1OC(CO)C(O)C(O)C1O)C(N)=O)C(C)C (stereo partly drawn) [CRA-DV-3024] (H-HSDGIFTDSYSRYRKQ[Nva]AVKKYL[ξS](X1)[ξS](X1)-NH2)	152%	127%		130%						
CCC[C@H](NC(=O)[C@H](CCC(N)=O)NC(=O)[C@H](CCCCN)NC(=O)[C@H](CCCNC(=N)N)NC(=O)[C@H](Cc1ccc(O)cc1)NC(=O)[C@H](CCCNC(=N)N)NC(=O)[C@H](CO)NC(=O)[C@H](Cc1ccc(O)cc1)NC(=O)[C@H](CO)NC(=O)[C@H](CC(=O)O)NC(=O)[C@@H](NC(=O)[C@H](Cc1ccccc1)NC(=O)[C@@H](NC(=O)[C@H](C)NC(=O)[C@H](CC(=O)O)NC(=O)[C@H](CO)NC(=O)[C@@H](N)Cc1c[nH]cn1)[C@@H](C)CC)[C@@H](C)O)C(=O)N[C@@H](C)C(=O)N[C@H](C(=O)N[C@@H](CCCCN)C(=O)N[C@@H](CCCCN)C(=O)N[C@@H](Cc1ccc(O)cc1)C(=O)N[C@@H](CC(C)C)C(=O)NC(COC1OC(CO)C(OC2OC(CO)C(O)C(O)C2O)C(O)C1O)C(N)=O)C(C)C (stereo partly drawn) [CRA-TG-3026] (H-HSDAIFTDSYSRYRKQ[Nva]AVKKYL[ξS](X2)-NH2)	181%	95%	190%	115%						
CCC[C@H](NC(=O)[C@H](CCC(N)=O)NC(=O)[C@H](CCCCN)NC(=O)[C@H](CCCNC(=N)N)NC(=O)[C@H](Cc1ccc(O)cc1)NC(=O)[C@H](CCCNC(=N)N)NC(=O)[C@H](CO)NC(=O)[C@H](Cc1ccc(O)cc1)NC(=O)[C@H](CO)NC(=O)[C@H](CC(=O)O)NC(=O)[C@@H](NC(=O)[C@H](Cc1ccccc1)NC(=O)[C@@H](NC(=O)CNC(=O)[C@H](CC(=O)O)NC(=O)[C@H](CO)NC(=O)[C@@H](N)Cc1c[nH]cn1)[C@@H](C)CC)[C@@H](C)O)C(=O)N[C@@H](C)C(=O)N[C@H](C(=O)N[C@@H](CCCCN)C(=O)N[C@@H](CCCCN)C(=O)N[C@@H](Cc1ccc(O)cc1)C(=O)N[C@@H](CC(C)C)C(=O)NC(COC1OC(CO)C(OC2OC(CO)C(O)C(O)C2O)C(O)C1O)C(N)=O)C(C)C (stereo partly drawn) [CRA-TG-3025] (H-HSDGIFTDSYSRYRKQ[Nva]AVKKYL[ξS](X2)-NH2)	174%	91%	168%	118%						
B1					107%	67 nM	134%	195 nM	90%	
B2					147%	1.9 nM	152%	26 nM	127%	cAMP stimulation Emax (Table 1, differs from Table 3) (human VPAC2 [3]): 128%; cAMP stimulation EC50 (human VPAC2 [4]): 7370 nM; cAMP stimulation Emax (human VPAC2 [4]): 130%
B3					42%	2.2 nM	198%	5.2 nM	94%	cAMP stimulation Emax (Table 1, differs from Table 3) (human VPAC2 [3]): 111%; cAMP stimulation EC50 (human VPAC2 [4]): 571 nM; cAMP stimulation Emax (human VPAC2 [4]): 91%
B4					118%	1.8 nM		21 nM		
